{"source": "patent US20240108003A1", "about": "“COMPOSITIONS AND METHODS FOR IMPROVING PLANT PERFORMANCE” (Advanced Crop Chemistry, priority 2022, published 2024)", "key": {"[1]": {"system": "Zymoseptoria tritici (Septotia tritici)", "assay": "Growth of fungal plant pathogen on amended potato dextrose agar (colony surface area)", "assay_type": "cell-based", "settings": "0.5 g/L in buffered PDA pH 6.2, 10 days, darkness, 68° F.", "method": "Zymoseptoria tritici (Septotia tritici) was grown in petri dishes on buffered (pH 6.2) potato dextrose agar (PDA), amended with penicillin (100 mg/L) and streptomycin (100 mg/L) as well as 2HOP (0.5 g/L) or […]). Five replicate plates/treatments were used and the cultures were grown for 10 days in darkness at 68° F. At the end of the 10-day period, the cultures were assessed in terms of the total surface area of growth of the colonies."}, "lettuce plants": {"system": "lettuce plants", "assay": "Foliar treatment of lettuce plants, tissue aromatic amino acids", "assay_type": "in vivo", "settings": "0.5 g/L", "source_text": "This is further supported by the data in Table 4 where foliar treatment of lettuce plants with […]) or 2HOP (0.5 g/L) increased the tissue levels of aromatic amino acids which are synthesized in the Shikimic acid pathway, a pathway that has a known role in modulation of plant innate tolerance to abiotic and biotic stresses such as disease."}, "Wheat (Winter White)": {"system": "Wheat (Winter White)", "assay": "Herbicide phytotoxicity on greenhouse wheat with and without 2HOP or L-PGA", "assay_type": "in vivo", "settings": "for phytotoxic impact of herbicides on wheat: combined with herbicides, foliar, assessed 10 days after application; for canopy biomass compared to the untreated: solo applications, 10 days post-treatment, visual", "method": "Wheat (Winter White) seeds (5 g) were sown in a 1-gallon pot in a greenhouse under natural light with a diurnal temperature range of 75° F. to 90° F. Various herbicides were applied alone or in combinations with L-PGA or 2HOP. Materials were applied at the equivalent rate of 100 L water/Ha with 0.25% v/v polyalkyl glucoside added as a wetting agent. There were 4 replicates per treatment, with 1 pot/replicate. 10 days after sowing, plants received a light cover spray at an equivalent application volume of 25 gallons/acre. Plants were destructively assessed 10 days later by measuring the total above-ground biomass of each replicate."}, "oat seedlings [2]": {"system": "oat seedlings", "assay": "Proline accumulation in oat seedlings", "assay_type": "in vivo", "settings": "weekly foliar 100 micromolar, 3 weeks; untreated undetectable", "method": "Sets of oat seedlings were grown and either treated or not treated with 2-hydroxy-5-oxoproline. The plants were grown in a greenhouse at 75° F. with ambient light and provided a standard complete nutrient plant food. Weekly foliar treatments were applied with 100 micromolar 2HOP began at the two-true leaf stage and continued for 3 weeks. Leaves from 20 plants were sampled and the free pools of proline were measured."}, "[3]": {"system": "Peace Lily (Spathiphyllum)", "assay": "Cold tolerance in a cold sensitive plant", "assay_type": "in vivo", "settings": "foliar 1 g/L; 4 days of 34-35° F. for 5-6 hours/day one week after treatment", "method": "The popular ornamental plant, the “Peace Lily”, is in the genus Spathiphyllum and all species are indigenous to the tropics. […] Three groups of containerized plants (in 6-inch pots, growing in a standard potting media) were established, and foliarly treated with 1 g/L 2HOP or LPGA. A surfactant (polyalkyl glucoside) at 0.25% v/v was added to both treatments to improve leaf coverage. Plants were treated and one week later were exposed 4 days to a diurnal regime of low temperatures (34° F. to 35° F.) for at least 5-6 hours/day and a high temperature of 55° F. to 57° F. for the remainder of the day. Plants were under a natural light regime. […] See Table 10 in FIG. 7A and FIG. 7B."}, "oat seedlings [4]": {"system": "oat seedlings", "assay": "Nitrate uptake rate of hydroponic oat seedlings", "assay_type": "in vivo", "settings": "first four hours of treatment", "method": "Oat seedlings were either treated or untreated and their rates of nitrogen uptake were measured. Oat seedlings were hydroponically grown in a greenhouse under ambient light at 75° F. with a complete standard soluble nutrient solution. They were acclimated to constant light, then deprived of nitrogen for a period, and then their nitrogen (nitrate) was replenished with or without 2HOP in the nutrient solution. The plant root systems were submerged in the appropriate solutions and the plants were allowed to grow and take up nitrate. The depletion of nitrate from the solution was measured every four hours to determine the rate of nitrate uptake by the plants."}, "leaf lettuce seedlings": {"system": "leaf lettuce seedlings", "assay": "Dry weight and carbon fixation capability in lettuce", "assay_type": "in vivo", "settings": "weekly foliar 100 micromolar", "method": "Sets (replicates) of leaf lettuce seedlings were treated with 2HOP or left untreated. Seedlings were grown in a greenhouse (75° F.) with ambient light, supplied with a standard liquid nutrient solution. The treated plants received weekly foliar sprays containing 100 micromolar 2HOP. Each replicate contained 20 plants in a tray. All plants were assessed for each prescribed parameter. For all parameter values vs control p=<0.05. RUBISCO is ribulose bisphosphate carboxylase, the major carbon-fixing enzyme."}, "oat seedlings [5]": {"system": "oat seedlings", "assay": "Soil application, carbon fixation capability in greenhouse grown oats", "assay_type": "in vivo", "settings": "soil drench 75 nanomoles daily; for increase of CO2 fixation compared to the untreated: plants 28 days old", "method": "Sets (replicates) of oat seedlings were treated with 2HOP, L-PGA, or left untreated. Seeds were planted in standard potting soil in a greenhouse at a constant 75° F. under natural light, supplied a standard liquid nutrient solution, and treated daily with 75 nanomoles of either 2HOP or L-PGA beginning 14 days after seedling emergence. The treatments were applied as a soil drench. The CO2 fixation rates were measured when plants were 28 days old. The ribulose bisphosphate carboxylase (RUBISCO) activation state was measured when plants were 26 days old. The rates for 20 plants were averaged for each set of plants. […] L-PGA increased CO2 fixation compared to the untreated by 21%. However, when 2HOP is compared to L-PGA in terms of CO2 fixation, 2HOP fixed CO2 at over an 11% higher rate (see Table 14)."}, "oat seedlings [6]": {"system": "oat seedlings", "assay": "Leaf protein content of oat seedlings", "assay_type": "in vivo", "settings": "three weekly foliar treatments 100 micromolar", "method": "Sets of oat seedlings were treated or untreated with 2HOP and the total foliar protein content was compared. Seedlings were greenhouse-grown at 75° F. under ambient light and provided a standard complete nutrient. The seedlings were given three weekly foliar treatments with 2HOP (100 micromolar) beginning at the two-true leaf stage."}, "Pepper and tomato plants": {"system": "Pepper and tomato plants", "assay": "Leaf numbers, leaf area and dry weight of greenhouse-grown tomato and pepper", "assay_type": "in vivo", "settings": "foliar 1 g/L or 0.5 g+0.5 g/L, assessed at eight weeks", "method": "Pepper and tomato plants were grown from seedlings for eight weeks in a greenhouse with ambient light at a constant 75° F. temperature. All plants received a standard fertigation treatment. Plants were destructively assessed at eight weeks. Each treatment had 20 single-plant replicates. Plants were treated with foliar applications of 2HOP (1 g/L water), […] water), or […] water). Each plant received approximately 50 ml of spray solution (sprayed to drip). All treatments included a wetting agent (polyalkyl glucoside) at 0.025% v/v addition. Plants received a light, cover spray at week 4. Plants were assessed in terms of leaf number per plant, leaf area/plant, and total dry weight/plant. In addition, at harvest, a composite leaf sample (10 leaves/plant, 200 leaves total) from each tomato treatment was collected, pooled with the other replicates, and assessed for elemental content which is presented in Table 18."}, "[7]": {"system": "Hard Red Wheat seeds (variety Glenn)", "assay": "Seed treatment, greenhouse-grown wheat leaf emergence", "assay_type": "in vivo", "settings": "greenhouse 65° F.", "method": "The treatments were pre-diluted in an equivalent of 2 liters of water and applied to one ton of seed. The seeds were planted in a 30 cm×30 cm flat tray at 1 seed/cm^2 in a naturally illuminated greenhouse maintained at 65° F. See Table 19 in FIG. 14."}, "[8]": {"system": "Wheat seeds (Skyfall variety)", "assay": "Seed treatment, field grown wheat emergence and yield", "assay_type": "in vivo", "source_text": "The treatments were pre-diluted in an equivalent of 2 liters of water and applied to one ton of seed. The seeds were planted in the fall at a rate of 200 kg/ha."}, "physchem": {"assay": "physchem", "settings": "aqueous solutions"}, "[9]": {"system": "Fusarium graminearum Schwabe Group 2", "assay_type": "in vivo, Fusarium graminearum on wheat", "settings": "foliar applications to infected wheat; ELISA on pooled grain"}, "Grapevines": {"system": "Grapevines", "assay": "Yield from grapevines grown in nematode infested soil", "assay_type": "in vivo, grapevine", "settings": "L-PGA root drench 1 g/L, Nemacur 7.5 ml/vine, vs untreated vines", "method": "(§1) Grapevines were treated with L-PGA alone or in combination with Nemacur® at two sites in California. […] Vines at both sites were 6 years old and replanted into sandy soil (CEC <7 meq/100 g soil) previously planted with vines. […] Site 2 was in Fresno County (var: Thompson seedless) and at this site several parasitic nematode species were in evidence (Table 8). Several treatments were undertaken as per Tables 6 & 7. Untreated vines received the standard grower cultural management programs. At both sites the plants were ungrafted. At Site 1, soil levels of nematodes were assessed prior to the onset of treatments and at various times throughout the trial (as given in Table 7). Plants were treated in the spring, summer, and fall and assessed 12, 13, 15 and, 24 months later at Site 1. Yield data were collected at both sites. Site 1 was treated for two seasons and yield was collected over two seasons. At Site 2, yields were collected and soil nematode levels were assessed 18 months after the onset of the treatments. Site 2 was only treated for one season and only one crop year was assessed."}, "[10]": {"system": "Root Knot nematode (Meloidogyne incognita, M. javanica, M. arenaria, and M. hapla)", "assay": "Soil Root Knot nematode populations, grapevines, Site 1", "assay_type": "in vivo", "settings": "Site 1, after 15 months", "method": "as §1"}, "[11]": {"system": "free-living (beneficial nematodes)", "settings": "in vivo", "method": "as §1"}, "plant parasitic nematode": {"system": "plant parasitic nematode", "assay": "Soil plant parasitic nematode populations, grapevines, Site 2", "assay_type": "in vivo, nematodes", "settings": "Site 2, L-PGA combined with Nemacur", "method": "L-PGA was applied by drenching the roots with a solution (5 liters per plant) containing 1 g/L L-PGA. Nemacur® 400ec was applied as a labelled commercial treatment to specific rows at the trial locations by injection through the micro irrigation system (7.5 ml/vine). Each treatment comprised 20 vines in five replicate blocks (4 vines/replicate). […] Several treatments were undertaken as per Tables 6 & 7. Untreated vines received the standard grower cultural management programs. At both sites the plants were ungrafted. […] Yield data were collected at both sites."}}}
{"compound": "O=C1CC[C@@](O)(C(=O)O)N1", "note": "[2HOP, 2-hydroxy-5-oxoproline]", "values": [{"measurement": "direct suppression of fungal growth (total surface area of colonies)", "setting": "[1]", "value": "no direct suppression of fungal growth"}, {"measurement": "tissue levels of aromatic amino acids", "setting": "lettuce plants", "value": "increased"}, {"measurement": "phytotoxic impact of herbicides on wheat", "setting": "Wheat (Winter White)", "value": "suppression of the phytotoxic impact"}, {"measurement": "canopy biomass compared to the untreated", "setting": "Wheat (Winter White)", "value": "visual increase in canopy biomass"}, {"measurement": "free proline pools in leaves", "setting": "oat seedlings [2]", "value": 2.6, "unit": "micromol/g fwt"}, {"measurement": "cold damage compared with untreated plants", "setting": "[3]", "value": "less cold damage"}, {"measurement": "rate of nitrate uptake relative to untreated counterparts", "setting": "oat seedlings [4]", "value": "approximately double"}, {"measurement": "rate of nitrate uptake", "setting": "oat seedlings [4]; untreated 5.8", "value": 11.5, "unit": "umol/gfwt/h"}, {"measurement": "elevation of CO2 fixation", "setting": "leaf lettuce seedlings", "value": "> 50", "unit": "%"}, {"measurement": "elevation of RUBISCO activation", "setting": "leaf lettuce seedlings", "value": 129, "unit": "%"}, {"measurement": "elevation of biomass", "setting": "leaf lettuce seedlings; average across all biomass parameters", "value": 34, "unit": "%"}, {"measurement": "CO2 fixation rate, 2HOP compared to L-PGA", "setting": "oat seedlings [5]; higher rate than L-PGA", "value": "> 11", "unit": "%"}, {"measurement": "increase of RUBISCO activation", "setting": "oat seedlings [5]; plants 26 days old", "value": 48, "unit": "%"}, {"measurement": "increase of CO2 fixation compared to the untreated", "setting": "oat seedlings [5]", "value": 34, "unit": "%"}, {"measurement": "total foliar fresh weight, % of the control plants", "setting": "oat seedlings [6]", "value": 183, "unit": "%"}, {"measurement": "total foliar protein, % of untreated control plants", "setting": "oat seedlings [6]", "value": 252, "unit": "%"}, {"measurement": "total protein in the foliar parts, % of untreated control plants", "setting": "oat seedlings [6]", "value": 252, "unit": "%"}, {"measurement": "foliar protein concentration", "setting": "oat seedlings [6]; control 6.0", "value": 8.8, "unit": "mg/g fresh weight"}, {"measurement": "number of leaves, leaf area, and total dry weight", "setting": "Pepper and tomato plants", "value": "greatest increases"}, {"measurement": "leaf emergence compared to the untreated group", "setting": "[7]", "value": "increased"}, {"measurement": "wheat yield compared to the untreated plots", "setting": "[8]", "value": "increased"}, {"measurement": "solubility", "setting": "physchem", "value": "145 to 435", "unit": "mg/mL"}]}
{"compound": "calcium phosphite", "values": [{"measurement": "DON grain levels", "setting": "[9]", "value": "largest reduction"}]}
{"compound": "O=C1CC[C@@H](C(=O)O)N1", "note": "[L-PGA, L-pyroglutamate]", "values": [{"measurement": "direct suppression of fungal growth (total surface area of colonies)", "setting": "[1]", "value": "no direct suppression of fungal growth"}, {"measurement": "tissue levels of aromatic amino acids", "setting": "lettuce plants", "value": "increased"}, {"measurement": "yield of grapevines", "setting": "Grapevines", "value": "elevated yield"}, {"measurement": "soil Root Knot nematode populations", "setting": "[10]", "value": "reduced"}, {"measurement": "effect on free-living (beneficial nematodes)", "setting": "[11]", "value": "minimal effect"}, {"measurement": "efficacy of Nemacur in soil plant parasitic nematode population suppression", "setting": "plant parasitic nematode", "value": "increased the efficacy"}, {"measurement": "phytotoxic impact of herbicides on wheat", "setting": "Wheat (Winter White)", "value": "suppression of the phytotoxic impact"}, {"measurement": "canopy biomass compared to the untreated", "setting": "Wheat (Winter White)", "value": "visual increase in canopy biomass"}, {"measurement": "cold damage compared with untreated plants", "setting": "[3]", "value": "less cold damage"}, {"measurement": "increase of CO2 fixation compared to the untreated", "setting": "oat seedlings [5]", "value": 21, "unit": "%"}, {"measurement": "increase of emergence versus the untreated", "setting": "[7]", "value": 19, "unit": "%"}, {"measurement": "leaf emergence compared to the untreated group", "setting": "[7]", "value": "increased"}, {"measurement": "wheat yield compared to the untreated plots", "setting": "[8]", "value": "increased"}]}
